Results as given in patent publication US6376511B2, “8-aminoquinolines” (The University of Mississippi, priority 1999, dated 2002).
Like-named read-outs stand apart in the source and are kept apart here.

Columns and labels:
[1] = system: Plasmodium berghei KBG-173; assay type: in vivo; conditions: for Parasitemia Day 6: percentage of red blood cells with parasites, control 31.8
Procedure: Blood Schizontocidal Test (Trophozoite-Induced Plasmodium berghei Infection in mice University of Miami, Test System: Thompson Test
Drugs were mixed in 0.5% hydroxycellulose 0.1% Tween 80 and administered orally b.i.d. on days 3, 4 and 5 postinfection. CD-1 male or female mice, 5 weeks of age, were infected with 5×10^4 parasitized erythrocytes of Plasmodium berghei KBG-173 mm strain. Blood films were taken on day +6 and weekly thereafter until day +60. Parasitemias were calculated and SD90 value (dose suppressing 90% of the parasites in treated groups compared with the infected non-treated controls) on day +6 postinfection. Mortality data was tabulated for 60 days at which time all mice surviving that were blood film negative were considered cured.
[…] The activity of these compounds were compared with the untreated control and “racemate” which is a mixture of equal amount of each enantiomer X and Y. In untreated controls, death occurs within 8-9 days. Compounds which are effective against Plasmodium berghei infection increase the mean survival time of the infected animals when compared with the untreated controls. Mice that survive after thirty days and are free of parasites in blood are considered cured.
Efficacy of the drug is determined by the number of cures at the end of a 30 day period and the increase in mean survival time over the control (ΔMST). The effect of the test drugs also could be determined by the reduction of the parasitemia (percentage of the red blood cells detected with the parasites) over the untreated control on day 6, one day after the treatment is completed. Both these methods yield virtually identical results. If the dose of test compounds are inadequate, after initial clearance, residual parasites will multiply and relapses will occur within thirty days. The blood schizontocidal activities (suppressive antimalarial) of X, Y, and racemate against P. berghei in mice are shown in Table 11.

[2] = system: Plasmodium berghei KBG-173; experiment: Prophylactic test, Plasmodium berghei infection in mice, oral; assay type: in vivo; conditions: for Mice surviving day 60/Mice infected and treated: single dose of 2 mg/kg
Source text: CD-I male or female mice, 5 weeks of age, were infected with 5×10^4 parasitized erythrocytes ot Plasmodium berghei KBG-173 mm strain. Blood films were taken on day +6 and weekly thereafter until day+30. […]

P. carinii = experiment: In vitro antipneumocystis activity; assay type: cell-based; conditions: Pneumocystis carinii, 168 h, read-out: % of control on day 7
Pneumocystis carinii = experiment: Anti-Pneumocystis carinii test (induced Pneumocystis carinii infection in immunosuppressed mice), oral; assay type: in vivo; conditions: mice
L. mexicana amazonensis = experiment: In vitro anti-Leishmania activity, Giemsa counts; assay type: cell-based; conditions: 10 μg/mL; control 15.10 ± 2.18
L. donovani Chagasi PP75 = experiment: In vitro anti-Leishmania activity, Giemsa counts; assay type: cell-based; conditions: control 6.35
Toxoplasma gondii = experiment: In vitro evaluation against Toxoplasma gondii; assay type: cell-based; conditions: preliminary evaluation
[3] = system: trypanosome isolate EATRO Lab 110; experiment: Antitrypanosomal activity, trypanosome isolates grown as blood forms in HMI-18; assay type: cell-based, Trypanosoma; conditions: Trypanosoma, 48 h
Procedure: (§1) Compounds were tested vs. trypanosome isolates grown as blood forms in HMI-18 (Hirumi H., Hirumi, K. 1989. Continuous Cuitivation of Trypanosoma brucei bloodstream forms in a medium containing a low concentration of serum portein without feeder cell layers. J. Parasitol. 75:985-989) containing 20% horse serum.

[4] = system: trypanosome isolate KETRI 243As103; experiment: as above; assay type: cell-based, Trypanosoma; conditions: Trypanosoma, 48 h
Procedure: as §1

[5] = system: trypanosome isolate KETRI 243; experiment: as above; assay type: cell-based, Trypanosoma; conditions: Trypanosoma, 48 h
Procedure: as §1

[6] = system: trypanosome isolate KETRI 269; experiment: as above; assay type: cell-based, Trypanosoma; conditions: Trypanosoma, 48 h
Procedure: as §1

Leishmania = experiment: In vitro activity against a variety of strains of Leishmania; assay type: cell-based
P. berghei = conditions: single dose 72 h after infection, cited from earlier work
P. cynomolgi = conditions: rhesus monkey, cited from earlier work
[7] = 0.25 mg/kg/day, 0.75 mg/kg total
[8] = oral 1.3 mg/kg/day (x21), mean score on 0 to 5+ scale

COc1cc(NC(C)CCCN)c2nccc(C)c2c1Oc1ccc(Cl)c(Cl)c1 (racemic) [DN3-27-1, 8-[(4-amino-1-methylbutyl)amino]-5-(3,4-dichlorophenoxy)-6-methoxy-4-methylquinoline]
Mice Alive Day 26 [1, 7]: 0/5
ΔMST (increase in mean survival time over the control) [1, 7]: 11.6 days
Parasitemia Day 6 [1, 7]: 4.8
Mice Alive Day 26 ([1]; 1 mg/kg/day, 3 mg/kg total): 0/5
ΔMST (increase in mean survival time over the control) ([1]; 1 mg/kg/day, 3 mg/kg total): 10.2 days
Parasitemia Day 6 ([1]; 1 mg/kg/day, 3 mg/kg total): 0.1
toxicity in mice ([1]; highest dose tested (Table I)): no mice showed toxicity at the highest dose tested
Mice surviving 60 days/Mice infected and treated ([1]; oral dose 1 mg/kg/day (total dose 3 mg/kg), P. berghei in mice): 7/7
Mice surviving 60 days/Mice infected and treated ([1]; oral dose 4 mg/kg/day (total dose 12 mg/kg), P. berghei in mice): 7/7
Mice surviving 60 days/Mice infected and treated ([1]; oral dose 16 mg/kg/day (total dose 48 mg/kg), P. berghei in mice): 7/7
Mice surviving 60 days/Mice infected and treated ([1]; oral dose 64 mg/kg/day (total dose 192 mg/kg), P. berghei in mice): 7/7
blood schizonticidal activity, comparison among compounds of Table I ([1]; oral, P. berghei in mice): the most active
Mice infected and Mice/treated surviving day 60 ([2]; day of treatment 1, dose 2 mg/kg): 5/5
Mice infected and Mice/treated surviving day 60 ([2]; day of treatment 1, dose 8 mg/kg): 5/5
Mice infected and Mice/treated surviving day 60 ([2]; day of treatment 1, dose 32 mg/kg): 5/5
Mice infected and Mice/treated surviving day 60 ([2]; day of treatment 1, dose 128 mg/kg): 5/5
Mice infected and Mice/treated surviving day 60 ([2]; day of treatment 2, dose 2 mg/kg): 5/5
Mice infected and Mice/treated surviving day 60 ([2]; day of treatment 2, dose 8 mg/kg): 5/5
Mice infected and Mice/treated surviving day 60 ([2]; day of treatment 2, dose 32 mg/kg): 5/5
Mice infected and Mice/treated surviving day 60 ([2]; day of treatment 2, dose 128 mg/kg): 5/5
Mice infected and Mice/treated surviving day 60 ([2]; day of treatment -1, dose 2 mg/kg): 5/5
Mice infected and Mice/treated surviving day 60 ([2]; day of treatment -1, dose 8 mg/kg): 5/5
Mice infected and Mice/treated surviving day 60 ([2]; day of treatment -1, dose 32 mg/kg): 5/5
Mice infected and Mice/treated surviving day 60 ([2]; day of treatment -1, dose 128 mg/kg): 5/5
Mice infected and Mice/treated surviving day 60 ([2]; day of treatment -2, dose 2 mg/kg): 5/5
Mice infected and Mice/treated surviving day 60 ([2]; day of treatment -2, dose 8 mg/kg): 5/5
Mice infected and Mice/treated surviving day 60 ([2]; day of treatment -2, dose 32 mg/kg): 5/5
Mice infected and Mice/treated surviving day 60 ([2]; day of treatment -2, dose 128 mg/kg): 5/5
Mice infected and Mice/treated surviving day 60 ([2]; day of treatment -3, dose 2 mg/kg): 0/5
Mice infected and Mice/treated surviving day 60 ([2]; day of treatment -3, dose 8 mg/kg): 5/5
Mice infected and Mice/treated surviving day 60 ([2]; day of treatment -3, dose 32 mg/kg): 5/5
Mice infected and Mice/treated surviving day 60 ([2]; day of treatment -3, dose 128 mg/kg): 5/5
protection from malaria ([2]; single dose of 2 mg/kg within 2 days preinfection through 2 days post infection, mice): completely protected from malaria
Mice surviving day 60/Mice infected and treated ([2]; day of treatment 2 (Table 5)): 2/5
Mice surviving day 60/Mice infected and treated ([2]; day of treatment -2 (Table 5)): 0/5
Mice surviving day 60/Mice infected and treated ([2]; day of treatment -3 (Table 5)): 0/5
Mice surviving day 60/Mice infected and treated ([2]; day of treatment -4 (Table 5)): 0/5
Mice surviving day 60/Mice infected and treated ([2]; day of treatment -5 (Table 5)): 0/5
activity at 0.1 µg/mL (P. carinii; concentration 0.1 μg/ml): 76.7%
activity at 1 µg/mL (P. carinii; concentration 1.0 μg/ml): 40.5%
activity at 10 µg/mL (P. carinii; concentration 10 μg/ml): 3.2%
Giemsa Stain I/T (animals with organism after treatment/animals treated) (Pneumocystis carinii; oral 0.25 mg/kg/day (x21)): 2/10
Giemsa Stain I/T (animals with organism after treatment/animals treated) (Pneumocystis carinii; oral 1.3 mg/kg/day (x21)): 0/10
Silver stain I/T (animals with organism after treatment/animals treated) (Pneumocystis carinii; oral 1.3 mg/kg/day (x21)): 0/10
Giemsa Stain Score (Pneumocystis carinii; [8]): 0.0
Silver stain Score (Pneumocystis carinii; [8]): 0.0
Giemsa Counts (L. mexicana amazonensis): 1.30 ± 0.38
Giemsa Counts (L. donovani Chagasi PP75; 50 ng/mL): 0.95 ± 0.27
Giemsa Counts (L. donovani Chagasi PP75; 150 ng/mL): 0.10 ± 0.03
Giemsa Counts (L. donovani Chagasi PP75; 450 ng/mL): 0.00 ± 0.00
activity in vitro against Toxoplasma gondii (concentration) (Toxoplasma gondii): around 50 μM
IC50 [3]: 9.4 µM
IC50 [4]: 10.9 µM
IC50 [5]: 29 µM
IC50 [6]: 5 µM
in vitro activity against a variety of strains of Leishmania (Leishmania): in vitro activity at very low concentrations
Mice infected and treated/Mice surviving 60 days (P. berghei; 5 mg/kg subcutaneously): 5/4
Mice infected and treated/Mice surviving 60 days (P. berghei; 10 mg/kg subcutaneously): 5/5
Mice infected and treated/Mice surviving 60 days (P. berghei; 20 mg/kg subcutaneously): 5/5
Mice infected and treated/Mice surviving 60 days (P. berghei; 40 mg/kg subcutaneously): 5/5
Mice infected and treated/Mice surviving 60 days (P. berghei; 80 mg/kg subcutaneously): 5/5
Mice infected and treated/Mice surviving 60 days (P. berghei; 160 mg/kg subcutaneously): 5/5
Mice infected and treated/Mice surviving 60 days (P. berghei; 320 mg/kg subcutaneously): 5/5
Mice infected and treated/Mice surviving 60 days (P. berghei; 640 mg/kg subcutaneously): 5/5
Monkeys infected and treated/cured (P. cynomolgi; 0.1 mg/kg/day x7, orally): 0/3
Monkeys infected and treated/cured (P. cynomolgi; 0.316 mg/kg/day x7, orally): 1/2
Monkeys infected and treated/cured (P. cynomolgi; 1.0 mg/kg/day x7, orally): 3/3
